The values that follow come from ChEMBL document CHEMBL5291721, “A preclinical secondary pharmacology resource illuminates target-adverse drug reaction associations of marketed drugs” (Nat Commun, 2023).

Assay [1] concerns the target 5-hydroxytryptamine receptor 7 (Homo sapiens, UniProt P34969).
Assay [2] has as its target T1, Muscarinic acetylcholine receptor M5 (Homo sapiens, UniProt P08912).
T1 sequence (P08912 whole entry): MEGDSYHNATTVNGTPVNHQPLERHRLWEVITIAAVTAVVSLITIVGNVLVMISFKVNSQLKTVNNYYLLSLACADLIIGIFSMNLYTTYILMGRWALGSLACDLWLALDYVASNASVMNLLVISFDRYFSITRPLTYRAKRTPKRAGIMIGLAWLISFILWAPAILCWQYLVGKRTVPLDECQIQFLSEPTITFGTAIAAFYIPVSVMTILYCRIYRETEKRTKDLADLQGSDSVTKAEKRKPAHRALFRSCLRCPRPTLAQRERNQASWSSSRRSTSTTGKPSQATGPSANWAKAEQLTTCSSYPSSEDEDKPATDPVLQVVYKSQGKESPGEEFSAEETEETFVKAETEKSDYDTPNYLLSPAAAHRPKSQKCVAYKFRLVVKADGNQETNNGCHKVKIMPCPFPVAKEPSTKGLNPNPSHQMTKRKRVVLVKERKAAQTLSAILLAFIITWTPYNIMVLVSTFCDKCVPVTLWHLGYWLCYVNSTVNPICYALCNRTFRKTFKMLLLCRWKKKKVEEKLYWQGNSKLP

Assay [3] has as its target Gamma-aminobutyric acid type B receptor subunit 1 (Homo sapiens, UniProt Q9UBS5).
The target in another assay is T2, Estrogen receptor (Homo sapiens, UniProt P03372).
T2 sequence (P03372 whole entry): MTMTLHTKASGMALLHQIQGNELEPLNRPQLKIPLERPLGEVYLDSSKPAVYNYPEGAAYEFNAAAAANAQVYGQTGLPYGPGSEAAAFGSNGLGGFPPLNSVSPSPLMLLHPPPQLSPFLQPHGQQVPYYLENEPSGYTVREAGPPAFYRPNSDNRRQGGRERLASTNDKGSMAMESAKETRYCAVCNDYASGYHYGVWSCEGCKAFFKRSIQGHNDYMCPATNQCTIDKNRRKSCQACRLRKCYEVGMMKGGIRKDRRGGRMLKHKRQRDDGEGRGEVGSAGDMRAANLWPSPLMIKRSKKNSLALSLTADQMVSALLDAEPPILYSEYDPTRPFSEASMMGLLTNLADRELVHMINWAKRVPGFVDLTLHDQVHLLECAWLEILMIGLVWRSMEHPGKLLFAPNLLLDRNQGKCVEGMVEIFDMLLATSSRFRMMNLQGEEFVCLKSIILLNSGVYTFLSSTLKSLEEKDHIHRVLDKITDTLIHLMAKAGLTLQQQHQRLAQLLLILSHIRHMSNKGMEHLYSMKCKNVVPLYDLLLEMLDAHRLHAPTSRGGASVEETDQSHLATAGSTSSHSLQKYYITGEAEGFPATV
In kind it is functional.

For assay [4], the target named is T3, Alpha-1A adrenergic receptor (Homo sapiens, UniProt P35348).
T3 sequence (P35348 whole entry): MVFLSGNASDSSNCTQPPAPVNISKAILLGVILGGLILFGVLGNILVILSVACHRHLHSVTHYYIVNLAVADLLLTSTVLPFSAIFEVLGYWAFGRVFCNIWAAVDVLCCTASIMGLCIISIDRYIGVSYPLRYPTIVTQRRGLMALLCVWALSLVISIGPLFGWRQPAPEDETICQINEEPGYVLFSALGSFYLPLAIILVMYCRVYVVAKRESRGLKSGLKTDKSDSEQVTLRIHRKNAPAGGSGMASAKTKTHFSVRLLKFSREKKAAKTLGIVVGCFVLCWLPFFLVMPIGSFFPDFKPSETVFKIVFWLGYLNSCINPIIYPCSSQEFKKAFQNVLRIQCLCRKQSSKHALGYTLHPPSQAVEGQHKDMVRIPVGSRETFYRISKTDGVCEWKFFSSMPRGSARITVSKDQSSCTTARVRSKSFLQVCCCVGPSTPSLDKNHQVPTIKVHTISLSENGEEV

Assay [5] has as its target T4, Muscarinic acetylcholine receptor M1 (Homo sapiens, UniProt P11229).
T4 sequence (P11229 whole entry): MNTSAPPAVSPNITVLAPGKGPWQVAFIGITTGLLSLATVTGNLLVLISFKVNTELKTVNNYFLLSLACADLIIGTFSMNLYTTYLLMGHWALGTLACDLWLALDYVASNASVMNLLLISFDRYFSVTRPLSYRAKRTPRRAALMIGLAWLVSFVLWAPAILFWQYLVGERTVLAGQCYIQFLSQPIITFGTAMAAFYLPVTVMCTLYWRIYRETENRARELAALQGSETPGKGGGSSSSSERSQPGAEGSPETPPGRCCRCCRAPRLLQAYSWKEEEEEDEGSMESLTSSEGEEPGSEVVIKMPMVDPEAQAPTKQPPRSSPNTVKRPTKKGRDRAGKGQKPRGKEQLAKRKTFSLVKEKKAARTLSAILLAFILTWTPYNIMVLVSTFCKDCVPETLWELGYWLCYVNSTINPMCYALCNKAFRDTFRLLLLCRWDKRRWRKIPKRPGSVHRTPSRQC

In assay [6] the target is T5, Nuclear receptor subfamily 1 group I member 3 (Homo sapiens, UniProt Q14994).
T5 sequence (Q14994 whole entry): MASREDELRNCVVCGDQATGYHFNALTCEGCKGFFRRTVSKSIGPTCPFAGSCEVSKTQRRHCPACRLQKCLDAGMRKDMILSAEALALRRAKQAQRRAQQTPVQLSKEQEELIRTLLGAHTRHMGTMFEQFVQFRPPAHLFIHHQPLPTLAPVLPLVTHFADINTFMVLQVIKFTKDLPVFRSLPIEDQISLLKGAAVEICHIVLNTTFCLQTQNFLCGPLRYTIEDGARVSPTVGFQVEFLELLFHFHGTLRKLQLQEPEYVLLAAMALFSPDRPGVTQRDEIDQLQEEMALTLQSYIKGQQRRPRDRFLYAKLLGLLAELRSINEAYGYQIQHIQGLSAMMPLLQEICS
In kind it is functional.

The structures appear in SMILES notation.
Note: assay procedure not described here.

Sequence of 5-hydroxytryptamine receptor 7 (P34969 whole entry): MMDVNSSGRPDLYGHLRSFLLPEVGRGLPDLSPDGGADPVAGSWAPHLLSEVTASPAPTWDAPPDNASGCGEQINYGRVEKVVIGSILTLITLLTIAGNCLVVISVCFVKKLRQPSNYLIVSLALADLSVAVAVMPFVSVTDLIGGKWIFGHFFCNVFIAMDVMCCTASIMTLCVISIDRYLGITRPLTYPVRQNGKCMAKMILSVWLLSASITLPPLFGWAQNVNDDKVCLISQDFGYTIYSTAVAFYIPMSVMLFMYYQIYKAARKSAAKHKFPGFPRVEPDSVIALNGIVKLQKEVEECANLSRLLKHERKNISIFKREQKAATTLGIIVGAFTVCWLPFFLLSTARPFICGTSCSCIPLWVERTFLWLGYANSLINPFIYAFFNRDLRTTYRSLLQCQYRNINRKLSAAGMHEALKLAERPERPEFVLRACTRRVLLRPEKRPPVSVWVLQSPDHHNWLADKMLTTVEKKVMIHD
Sequence of Gamma-aminobutyric acid type B receptor subunit 1 (Q9UBS5 whole entry): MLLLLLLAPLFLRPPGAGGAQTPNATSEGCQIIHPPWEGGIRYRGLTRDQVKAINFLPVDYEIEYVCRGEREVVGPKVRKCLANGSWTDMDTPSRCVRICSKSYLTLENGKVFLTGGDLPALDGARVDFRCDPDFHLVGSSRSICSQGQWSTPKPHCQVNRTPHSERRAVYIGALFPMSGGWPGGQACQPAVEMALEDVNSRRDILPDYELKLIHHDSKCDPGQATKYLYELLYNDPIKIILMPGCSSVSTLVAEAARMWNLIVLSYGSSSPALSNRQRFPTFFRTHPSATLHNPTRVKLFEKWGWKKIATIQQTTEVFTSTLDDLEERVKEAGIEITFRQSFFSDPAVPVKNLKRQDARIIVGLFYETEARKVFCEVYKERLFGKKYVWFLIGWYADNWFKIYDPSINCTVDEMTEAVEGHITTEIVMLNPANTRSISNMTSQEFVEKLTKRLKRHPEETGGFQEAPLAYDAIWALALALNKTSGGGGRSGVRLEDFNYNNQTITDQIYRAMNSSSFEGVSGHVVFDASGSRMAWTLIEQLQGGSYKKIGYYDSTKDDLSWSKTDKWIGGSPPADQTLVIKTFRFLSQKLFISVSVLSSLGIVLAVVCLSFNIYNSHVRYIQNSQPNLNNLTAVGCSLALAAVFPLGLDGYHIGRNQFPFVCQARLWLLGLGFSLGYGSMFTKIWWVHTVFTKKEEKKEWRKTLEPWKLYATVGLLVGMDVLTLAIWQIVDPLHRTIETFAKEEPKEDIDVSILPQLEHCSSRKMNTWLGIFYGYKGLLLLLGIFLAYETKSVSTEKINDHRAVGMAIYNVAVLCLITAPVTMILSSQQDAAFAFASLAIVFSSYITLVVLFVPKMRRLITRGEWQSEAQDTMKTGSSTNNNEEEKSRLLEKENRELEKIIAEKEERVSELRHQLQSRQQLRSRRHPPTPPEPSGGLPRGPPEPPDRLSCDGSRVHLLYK

Turning to `CCOc1nc2cccc(C(=O)O)c2n1Cc1ccc(-c2ccccc2-c2nnn[nH]2)cc1`, the AC50 is above 10 µM in assay [1], above 10 µM in assay [2], above 10 µM in assay [3] and above 30 µM at Estrogen receptor.
Consider `CCCc1nc2c(C)cc(-c3nc4ccccc4n3C)cc2n1Cc1ccc(-c2ccccc2C(=O)O)cc1`, for which the AC50 in assay [1] was above 10 µM; in assay [2], above 10 µM; in assay [3], above 10 µM; at Estrogen receptor it was above 30 µM.
With `CCOc1cc([C@@H](CS(C)(=O)=O)N2C(=O)c3cccc(NC(C)=O)c3C2=O)ccc1OC`, on Estrogen receptor, the AC50 is above 30 µM.
In the case of `Nc1c(CC(=O)O)cccc1C(=O)c1ccc(Br)cc1` [BROMFENAC], the AC50 in assay [4] was above 30 µM.
Turning to `Cc1nnc(SCC2=C(C(=O)O)N3C(=O)[C@@H](NC(=O)Cn4cnnn4)[C@H]3SC2)s1` [CEFAZOLIN], on Estrogen receptor, the AC50 was above 300 µM.
At Estrogen receptor, `CC(C)(O/N=C(\C(=O)N[C@@H]1C(=O)N2C(C(=O)[O-])=C(C[n+]3ccccc3)CS[C@H]12)c1csc(N)n1)C(=O)O` [CEFTAZIDIME] had an AC50 of 48 µM.
For `CC(C)NC(=N)NC(=N)Nc1ccc(Cl)c(Cl)c1` [CHLORPROGUANIL], the AC50 in assay [5] is above 30 µM; in assay [4], 2.74 µM.
`CCC(=O)O[C@]1(C(=O)CCl)[C@@H](C)C[C@H]2[C@@H]3CCC4=CC(=O)C=C[C@]4(C)[C@@]3(F)[C@@H](O)C[C@@]21C` [CLOBETASOL PROPIONATE] returned an AC50 on Estrogen receptor above 30 µM.
Consider `Cc1nc(Nc2ncc(C(=O)Nc3c(C)cccc3Cl)s2)cc(N2CCN(CCO)CC2)n1` [DASATINIB], for which the AC50 in assay [2] and in assay [3] was above 10 µM in each case.
For the molecule `CC(C)Cc1ccc([C@H](C)C(=O)O)cc1` [DEXIBUPROFEN], at Estrogen receptor, the AC50 was above 30 µM.
As for `O=C(O)Cc1ccccc1Nc1c(Cl)cccc1Cl` [DICLOFENAC], the AC50 in assay [1] is above 10 µM; in assay [2], above 10 µM; in assay [3], above 10 µM; in assay [6] it was 23 µM.
Turning to `CN[C@@H]1[C@H](O[C@H]2[C@H](O[C@H]3[C@H](O)[C@@H](O)[C@H](NC(=N)N)[C@@H](O)[C@@H]3NC(=N)N)O[C@@H](C)[C@]2(O)CO)O[C@@H](CO)[C@H](O)[C@H]1O` [DIHYDROSTREPTOMYCIN], the AC50 in assay [5] and in assay [4] was above 30 µM in each case.
For the molecule `CNC[C@H](O)c1ccc(O)c(O)c1` [EPINEPHRINE], at Estrogen receptor, the AC50 was above 30 µM.
Take `Cc1ccc(C)c(OCCCC(C)(C)C(=O)O)c1` [GEMFIBROZIL]: the AC50 in assay [3] was above 10 µM.
For the molecule `C#C[C@]1(O)C=C[C@H]2[C@@H]3CCC4=CC(=O)CC[C@@H]4[C@H]3CC[C@@]21CC` [GESTODENE], the AC50 in assay [5] and in assay [4] was above 30 µM throughout.
The molecule `COc1cc(C(C)=O)ccc1OCCCN1CCC(c2noc3cc(F)ccc23)CC1` [ILOPERIDONE] came in with an AC50 at Estrogen receptor above 30 µM.
Molecule `CC(CN1c2ccccc2Sc2ccccc21)N(C)C` (configuration not stated) [PROMETHAZINE] yielded an AC50 in assay [4] of 0.03 µM.
In the case of `CN(CCOc1ccc(CC2SC(=O)NC2=O)cc1)c1ccccn1` (configuration not stated) [ROSIGLITAZONE], the AC50 in assay [1] was above 10 µM; in assay [2], above 10 µM; in assay [3], above 10 µM; in assay [6], 18 µM.
On Estrogen receptor, `S=P(N1CC1)(N1CC1)N1CC1` [THIOTEPA] had an AC50 above 30 µM.
Molecule `CC(C)C[C@H](NC(=O)[C@@H](O)[C@H](N)Cc1ccccc1)C(=O)O` [UBENIMEX] gave an AC50 in assay [4] above 30 µM.
The molecule `COc1cc(C(=O)NS(=O)(=O)c2ccccc2C)ccc1Cc1cn(C)c2ccc(NC(=O)OC3CCCC3)cc12` [ZAFIRLUKAST] came in with an AC50 in assay [6] of 4 µM.
